These results are taken from publication PMC11141316, “Anilino-1,4-naphthoquinones as potent mushroom tyrosinase inhibitors: in vitro and in silico studies” (Journal of Enzyme Inhibition and Medicinal Chemistry, 2024).

Read-outs that look alike come from different tables or passages of the source.

For test [1], the target named is mushroom tyrosinase. The test can be described thus: Mushroom tyrosinase activity assay (L-DOPA to dopachrome). The test is classed as biochemical. As to conditions: L-DOPA substrate, 37 °C, pH 6.8, mean ± SEM, n = 3. The procedure: Enzymatic conversion of L-DOPA into dopachrome by mushroom tyrosinase (Sigma Aldrich, St. Louis, MO) was detected using spectrophotometric evaluation. The mushroom tyrosinase activity assay was performed according to a previous report. In this study, the enzyme assay was conducted at 37 °C, which is in the optimal temperature range of tyrosinase, as per previous studies[20]^,[21]. The enzyme, substrate, and inhibitor(s) were dissolved in potassium phosphate buffer at a pH of 6.8, which is in the optimal pH range of tyrosinase. Note that, the solvent for preparing the stock solution of inhibitors was dimethyl sulphoxide. […] Then, the substrate (10 μL of 50 mM of L-DOPA) was introduced to the samples, followed by incubation at 37 °C for 15 min in darkness. The absorbance was later measured at 450 nm. The experiment was conducted in triplicate. IC50 values were determined through dose–response curve analysis using GraphPad Prism 10.2.2 software (La Jolla, CA).
Data are presented as the mean ± standard error of the mean (SEM) from three independent experiments (n = 3). Statistical comparisons between two groups were conducted using the t-test, with a p value of <0.05 considered to be statistically significant.

The test system of the next test is EGFR. Details: method as in PMID 35664590, PMID 25019480. The settings on record: cited from earlier work.
Test [2] concerns the target mushroom tyrosinase. The settings on record: read-out: IC50 (previously reported tyrosinase inhibitor); cited from earlier work.

Usually IC50 stands for the concentration that inhibits the measured activity by half.

Take `O=C1C=C(Nc2ccccc2)C(=O)c2ccccc21` [compound 1]: the IC50 on mushroom tyrosinase [1] was determined as 151 ± 4.39 µM.

For `Cc1ccc(NC2=C(Cl)C(=O)c3ccccc3C2=O)cc1` [compound 3], the “EGFR inhibitory potency relative to erlotinib” value in the test on EGFR is “fourfold higher potency than erlotinib”.

On to `O=c1c(O)c(-c2ccc(O)cc2O)oc2cc(O)cc(O)c12` [morin], for which, at mushroom tyrosinase [2], the IC50 is 2.32 mM.

`C[C@@H]1[C@H](O)[C@@H](C)/C=C/C=C/C=C/C=C/C=C/C=C/C=C/[C@H](O[C@@H]2O[C@H](C)[C@@H](O)[C@H](N)[C@@H]2O)C[C@@H]2O[C@](O)(C[C@@H](O)C[C@@H](O)[C@H](O)CC[C@@H](O)C[C@@H](O)CC(=O)O[C@H]1C)C[C@H](O)[C@H]2C(=O)O` [amphotericin B]: the IC50 at mushroom tyrosinase [2] was 0.263 ± 0.0118 mM.

As to `CC(=O)c1cccc(NC2=C(Cl)C(=O)c3ccccc3C2=O)c1` [compound 10], the IC50 against mushroom tyrosinase [1] turned out to be 112 ± 9.18 µM.

Turning to `O=C1C(Cl)=C(Nc2ccc(Br)cc2)C(=O)c2ccccc21` [compound 5], half-maximal inhibition on mushroom tyrosinase [1] (IC50) required 138 ± 6.07 µM.

For `CC1(C)C=Cc2c(O)ccc(C3=Cc4ccc(O)cc4OC3)c2O1` [glabrene], the IC50 on mushroom tyrosinase [2] was 7.6 mM.
